PMC4627284, “High-throughput simultaneous screen and counterscreen identifies homoharringtonine as synthetic lethal with von Hippel-Lindau loss in renal cell carcinoma” (Oncotarget, 2015)

Test system: VHL-deficient 786-O cells
Experiment: High-throughput simultaneous screen and counterscreen, 1:1 mix of EV^GFP and VHL^mCh 786-O cells, fluorescence imaging
Type: cell-based, human
Conditions: library at 5 μM, 48 hours, in the presence of 2 nM rapamycin
Description: To identify small molecule compounds synthetic lethal with VHL, we carried out an unbiased cell-based screen of a chemical library of ~12,800 compounds using 786-O cells, an extensively studied cell line derived from a VHL-deficient primary human ccRCC [26]. 786-O cells were stably transfected with either an empty vector (EV) control or reconstituted with an HA-tagged VHL cDNA. […] To distinguish between the two otherwise isogenic cell lines, we transduced the VHL-deficient 786-O cells with a histone H2B-GFP reporter and the VHL-reconstituted cells with an H2B-mCherry reporter. The histone proteins drive the fluorochrome to nuclei facilitating cell identification and segmentation algorithms (Figure 1A and 1B). […]
Figure 1 Screening strategy to identify compounds that are synthetic lethal with VHL A. Schematic diagram of a ~12,800 chemical library synthetic lethal screen. […] Fluorescence imaging (using the BD Pathway 855 imager) was used to identify compounds preferentially depleting VHL-deficient/GFP-positive cells after cells were segmented. B. Left panel: Representative image of fluorescence signal from Hoescht-labeled 786-O cells. Right panel: overlay of GFP fluorescence signal (green; from 786-O EV^GFP cells) and mCherry fluorescence nuclear signal (red; VHL^mCh cells). […] Toxicity was determined as ≤100 VHL^mCh cells per field. […]

SMILES: COC(=O)C[C@](O)(CCCC(C)(C)O)C(=O)O[C@@H]1C(OC)=C[C@]23CCCN2CCc2cc4c(cc2[C@H]13)OCO4 [HHT, homoharringtonine]
- synthetic lethality with VHL in the screen: synthetic lethal compound effective against VHL-deficient ccRCC cells
